pIC50: −log10 of the molar value.
System: 648629-189-R-J1-PDC spheroids with HUVEC/MSC, viability
Assay: Anticancer human tumor 648629-189-R-J1-PDC patient-derived bladder carcinoma cell line growth inhibition [PI3K]
Conditions: for pIC50: curve of first compound; for viability, T/C: stronger effect = lower value
From the text: Combinatorial screen of targeted agents with the PI3K inhibitors inavolisib, alpelisib, duvelisib, and copanlisib in multi-cell type tumor spheroids
A high-throughput screen of multi-cell type tumor spheroids was designed to identify active combinations of targeted small molecules and PI3K pathway inhibitors. Complex spheroids include a stromal component modeled by human endothelial cells (HUVEC) and fibroblasts modeled by human mesenchymal stem cells (MSCs). The concentration ranges selected for each drug and investigational agent were based upon clinically achievable concentrations if the clinical Cmax of the agent was known.
Compounds. The drugs and investigational agents: inavolisib (NSC800729), alpelisib (NSC765974), duvelisib (NSC772469), copanlisib (NSC816437), ipatasertib (NSC767898), afuresertib (NSC778305), talazoparib (NSC767125), sapanisertib (NSC764658), selumetinib (NSC741078), tovorafenib (DAY101, NSC766906), vemurafenib (NSC761431), ravoxertinib (NSC781343), sotorasib (NSC818433), MRTX1133 (NSC 836407), abemaciclib (NSC 768073), palbociclib (NSC758247), venetoclax (NSC 766270), SY5609 (NSC837396), enzalutamide (NSC755605), and darolutamide (NSC825331), were obtained from the National Cancer Institute (NCI) Developmental Therapeutics Program Chemical Repository. The FDA-approved anticancer drug set is available from the NCI Developmental Therapeutics Program. […] The stock solutions were prepared in dimethyl sulfoxide (DMSO, Sigma-Aldrich, St. Louis, MO, cat. D2650) at 800-fold the tested concentration and stored at -70 degrees C prior to their use. All drugs and investigational agents were tested over a range starting from a high concentration at or near the clinical Cmax and decreasing in half-log increments. If the clinical Cmax for an agent had not been determined, the highest concentration tested was 10 microM.
Cell Culture. All cells were maintained in an incubator at 37 degrees C and 5% CO2 with 95% humidity. The PDC lines were cultured according to standard operating procedures established by the NCI PDMR (https://pdmr.cancer.gov/sops/default.htm). All PDCs were thawed and cultured in Matrigel-coated flasks prepared with a working solution of 1X Ham's F-12 nutrient mix, without supplementation (Invitrogen, Waltham, MA, cat. 11765054), 100 U/mL penicillin-streptomycin (Invitrogen, cat. 15140122), and 2.5% Matrigel (Corning Inc., Corning, NY, cat. 354248) for the first three passages. The 354836-022-R-J1-PDC, 475296-252-R-J1-PDC, and 997726-040-R-J2-PDC lines were cultured in 6A media, which includes advanced DMEM/F-12 (Thermo Fisher Scientific, cat. 12634028), 10 mM HEPES (Thermo Fisher Scientific, cat. 15630080), 1X GlutaMAX supplement (Thermo Fisher Scientific, cat. 35050061), 0.1 mg/mL primocin (InvivoGen, San Diego, CA, cat. ant-pm-2), 10% defined fetal bovine serum, heat inactivated (HyClone Laboratories Inc., Logan, UT, cat. SH30070.03HI), 50% L-WRN conditioned media (ATCC, cat. CRL-3276), 1.25 mM N-Acetyl-L-cysteine (Sigma-Aldrich, cat. A9165), 10 mM nicotinamide (Sigma-Aldrich, cat. N0636), 1X B-27 supplement (Thermo Fisher Scientific, cat. 17504044), 1X N-2 supplement (Thermo Fisher Scientific, cat. 17502048), and 10 microM Y-27632 dihydrochloride (Tocris Bioscience, Bristol, United Kingdom, cat. 1254). The 624824-186-R-J2-PDC line was cultured in 6C/Colon 1B media, which includes all 6A media components plus 50 ng/mL human EGF recombinant protein (Thermo Fisher Scientific, cat. PHG0311). […]
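Also: spheroids exposed to agents for seven days before reading.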
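For viability, T/C in this document: percent of vehicle control luminescence where 100% = DMSO treated spheroids.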

C=CC(=O)N1CCN(c2nc(=O)n(-c3c(C)ccnc3C(C)C)c3nc(-c4c(O)cccc4F)c(F)cc23)C(C)C1 (configuration not stated) + CC(Nc1ccc2c(c1)OCCn1cc(N3C(=O)OCC3C(F)F)nc1-2)C(N)=O
pIC50 (second compound 0.00316 µM): < 5.00
pIC50 (second compound 0.01 µM): < 5.00
pIC50 (second compound 0.0316 µM): < 5.00
pIC50 (second compound 0.1 µM): < 5.00
pIC50 (second compound 0.316 µM): < 5.00
pIC50 (second compound 1 µM): < 5.00
viability, T/C (second compound 0.00316 µM, first compound 0.0316 µM): 111%
viability, T/C (second compound 0.00316 µM, first compound 0.1 µM): 99.1%
viability, T/C (second compound 0.00316 µM, first compound 0.316 µM): 117%
viability, T/C (second compound 0.00316 µM, first compound 1 µM): 105%
viability, T/C (second compound 0.00316 µM, first compound 3.16 µM): 106%
viability, T/C (second compound 0.00316 µM, first compound 10 µM): 92.3%
viability, T/C (second compound 0.01 µM, first compound 0.0316 µM): 121%
viability, T/C (second compound 0.01 µM, first compound 0.1 µM): 106%
viability, T/C (second compound 0.01 µM, first compound 0.316 µM): 111%
viability, T/C (second compound 0.01 µM, first compound 1 µM): 114%
viability, T/C (second compound 0.01 µM, first compound 3.16 µM): 115%
viability, T/C (second compound 0.01 µM, first compound 10 µM): 92.3%
viability, T/C (second compound 0.0316 µM, first compound 0.0316 µM): 101%
viability, T/C (second compound 0.0316 µM, first compound 0.1 µM): 108%
viability, T/C (second compound 0.0316 µM, first compound 0.316 µM): 98.2%
viability, T/C (second compound 0.0316 µM, first compound 1 µM): 106%
viability, T/C (second compound 0.0316 µM, first compound 3.16 µM): 123%
viability, T/C (second compound 0.0316 µM, first compound 10 µM): 92.5%
viability, T/C (second compound 0.1 µM, first compound 0.0316 µM): 92.4%
viability, T/C (second compound 0.1 µM, first compound 0.1 µM): 106%
viability, T/C (second compound 0.1 µM, first compound 0.316 µM): 107%
viability, T/C (second compound 0.1 µM, first compound 1 µM): 115%
viability, T/C (second compound 0.1 µM, first compound 3.16 µM): 103%
viability, T/C (second compound 0.1 µM, first compound 10 µM): 92.5%
viability, T/C (second compound 0.316 µM, first compound 0.0316 µM): 92.6%
viability, T/C (second compound 0.316 µM, first compound 0.1 µM): 93.1%
viability, T/C (second compound 0.316 µM, first compound 0.316 µM): 84.1%
viability, T/C (second compound 0.316 µM, first compound 1 µM): 95.2%
viability, T/C (second compound 0.316 µM, first compound 3.16 µM): 84.5%
viability, T/C (second compound 0.316 µM, first compound 10 µM): 78.1%
viability, T/C (second compound 1 µM, first compound 0.0316 µM): 73.1%
viability, T/C (second compound 1 µM, first compound 0.1 µM): 71.9%
viability, T/C (second compound 1 µM, first compound 0.316 µM): 73.5%
viability, T/C (second compound 1 µM, first compound 1 µM): 80.7%
viability, T/C (second compound 1 µM, first compound 3.16 µM): 91.8%
viability, T/C (second compound 1 µM, first compound 10 µM): 66.2%

— PubChem BioAssay AID1963974 (Molecular Pharmacology Branch, DTP, NCI, 2024)
